From patent US12268694B2, “Combination pharmaceutical agents as RSV inhibitors” (Enanta Pharmaceuticals, Inc., priority 2017, dated 2025)
Like-named read-outs stand apart in the source and are kept apart here.

Test system: genotype A, "Long" strain RSV
Test: RSV-A assay: CPE protection in HEp-2 cells, ATPlite readout
Format: cell-based, human respiratory syncytial virus
Outline: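 EC50 derives from ATPlite luminescence after 5-day culture of RSV Long-infected (MOI 0.1) HEp-2 cells, seeded 8,000/well, exposed to duplicate 2-fold compound series. CC50 comes from an identical plate receiving medium instead of virus.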

[1] = human respiratory syncytial virus, HEp-2, read-out: Human RSV-A (“Long” strain) EC50
[2] = HEp-2 cells, RSV-A Long strain, ATPlite readout, read-out: Human RSV-A (“Long” strain) EC50

Row | Structure (SMILES) | EC50 [1] | EC50 [2]
1 | CN1CCN(c2cc(C(F)(F)F)cnc2-c2nnc(N[C@H]3N=C(c4ccccc4)c4ccccc4NC3=O)o2)CC1 [Example 327] | 400 to 800 nM | 
2 | O=C1Nc2ccccc2C(c2ccccc2)=N[C@@H]1Nc1nnc(-c2cnc(C(F)(F)F)nc2N2CCOCC2)o1 [Example 162] | < 400 nM | 
3 | COCCn1ccc2cccc(-c3nnc(N[C@H]4N=C(c5ccccc5)c5ccccc5NC4=O)o3)c21 [Example 426] | > 800 nM | 
4 | CN1CCN(c2ncccc2-c2nnc(NC3N=C(c4ccccc4)c4ccccc4NC3=O)o2)CC1 (stereo not shown) [Example 237] | > 800 nM | 
5 | O=C1Nc2ccccc2C(c2ccccc2)=N[C@@H]1Nc1nnc(-c2cn(CC3CC3)nc2N2CCOCC2)o1 [Example 446] |  | < 400 nM
6 | O=C1Nc2ccccc2C(c2ccccc2)=NC1Nc1nnc(C2(F)CC2)o1 (stereo not shown) [Example 204] | > 800 nM | 
7 | O=C1Nc2ccccc2C(c2ccccc2)=NC1Nc1nnc(-c2ccccc2C2=CCOCC2)o1 (stereo not shown) [Example 353, 3-((5-(2-(3,6-dihydro-2H-pyran-4-yl)phenyl)-1,3,4-oxadiazol-2-yl)amino)-5-phenyl-1,3-dihydro-2H-benzo[e][1,4]diazepin-2-one] | > 800 nM | 
8 | O=C1Nc2ccccc2C(c2ccccc2)=N[C@@H]1Nc1nnc(-c2ncc(C(F)(F)F)cc2C2CC2)o1 [Example 293] | > 800 nM | 
9 | O=C1Nc2ccccc2C(c2ccccc2)=N[C@@H]1Nc1nnc(-c2ncc(C(F)(F)F)cc2NCc2ccco2)o1 [Example 421] | > 800 nM | 
10 | O=C1Nc2ccccc2C(c2ccccc2)=NC1Nc1nnc(-c2ncccc2N2CCOCC2)o1 (stereo not shown) [Example 132] | < 400 nM | 
11 | COC[C@H]1CCCN1c1sc(C(F)(F)F)nc1-c1nnc(N[C@H]2N=C(c3ccccc3)c3ccccc3NC2=O)o1 [Example 456] | > 800 nM | 
12 | O=C1Nc2ccccc2C(c2ccccc2)=N[C@@H]1Nc1nnc(-c2ccc(F)cc2N2CCOCC2)o1 [Example 159] | < 400 nM | 
13 | Cc1nc(-c2nnc(N[C@H]3N=C(c4ccccc4)c4ccccc4NC3=O)o2)c(C2CCOCC2)s1 [Example 346, (S)-3-((5-(2-methyl-5-(tetrahydro-2H-pyran-4-yl)thiazol-4-yl)-1,3,4-oxadiazol-2-yl)amino)-5-phenyl-1,3-dihydro-2H-benzo[e][1,4]diazepin-2-one] | < 400 nM | 
14 | Cc1nsc(N2CCOCC2)c1-c1nnc(N[C@H]2N=C(c3ccccc3)c3ccccc3NC2=O)o1 [Example 465] | 400 to 800 nM | 
15 | C[C@@H]1CN(c2ccc(-c3nnc(N[C@H]4N=C(c5ccccc5)c5ccccc5NC4=O)o3)c(Cl)c2)C[C@H](C)O1 [Example 243] | > 800 nM | 
16 | CN1CCN(c2ccc(-c3nnc(NC4N=C(c5ccccc5)c5ccccc5NC4=O)o3)cc2)CC1 (stereo not shown) [Example 210] | > 800 nM | 
17 | O=C1Nc2ccccc2C(c2ccccc2)=N[C@@H]1Nc1nnc(-c2cn(-c3ccc(C(F)(F)F)cn3)nc2N2CCOCC2)o1 [Example 440] | 400 to 800 nM | 
18 | O=C1Nc2ccccc2C(c2ccccc2)=N[C@@H]1Nc1nnc(-c2nc(C3(O)CCC3)sc2N2CCOCC2)o1 [Example 455] | < 400 nM | 
19 | O=C1Nc2ccccc2C(c2ccccc2)=NC1Nc1nnc(-c2ccccc2OC2CCOCC2)o1 (stereo not shown) [Example 239] | > 800 nM | 
20 | COCC1(Nc2cc(C(F)(F)F)cnc2-c2nnc(N[C@H]3N=C(c4ccccc4)c4ccccc4NC3=O)o2)CC1 [Example 415] | > 800 nM | 
21 | O=C1Nc2ccccc2C(c2ccccc2)=N[C@@H]1Nc1nnc(-c2ncc(C(F)(F)F)cc2N[C@H]2CCOC2)o1 [Example 470] | > 800 nM | 
22 | O=C1Nc2c(F)cccc2C(c2ccccc2)=N[C@@H]1Nc1nnc(-c2cccnc2N2CCOCC2)o1 (single isomer, unassigned) [Example 357] |  | > 800 nM
23 | O=C1Nc2ccccc2C(c2ccccc2)=N[C@@H]1Nc1nnc(-c2nc(C(F)(F)F)sc2N2CCO[C@H]3C[C@H]32)o1 [Example 485] |  | > 800 nM
24 | CS(=O)(=O)c1ccc(-c2nnc(NC3N=C(c4ccccc4)c4ccccc4NC3=O)o2)c(N2CCOCC2)c1 (stereo not shown) [Example 121] | > 800 nM | 
25 | O=C1Nc2ccccc2C(c2cccc(F)c2)=NC1Nc1nnc(-c2ccc(F)cc2)o1 (stereo not shown) [Example 380] | 400 to 800 nM | 
